Measurements as given in PMC12866986 (European journal of medicinal chemistry, 2026).
Several values for one entry are separate records, joined by “and”; a condition that tells them apart may be missing. Equal entries are not always repeated. Where two headings read alike, the source gives them in different places.

Key:
hERG = hERG (Homo sapiens, UniProt Q12809); conditions: at 30 μM
[1] = rat plasma
[2] = after four days of continuous administration; cited from earlier work
[3] = at concentrations 10,000x higher than the effective dose; cited from earlier work
Caco-2 cells = conditions: for wound closure with proliferation inhibited: 100 nM, 4 mM hydroxyurea, 24 h, Caco-2 monolayers, n=33–35, p<0.05 vs vehicle; for EC50: read-out: EC50 (nM), ± SEM, wound healing, Caco-2 assay
[4] = cited from earlier work
[5] = cited from earlier work; remark: listed apart in the source
[6] = for Clint: intrinsic clearance; for MLM t1/2: mouse liver microsomes
[7] = PBS at pH = 7.4
FAK = FAK (Homo sapiens, UniProt Q05397); conditions: 1 h, relative to vehicle control, n = 8 measurements
FAK, sequence (Q05397 whole entry): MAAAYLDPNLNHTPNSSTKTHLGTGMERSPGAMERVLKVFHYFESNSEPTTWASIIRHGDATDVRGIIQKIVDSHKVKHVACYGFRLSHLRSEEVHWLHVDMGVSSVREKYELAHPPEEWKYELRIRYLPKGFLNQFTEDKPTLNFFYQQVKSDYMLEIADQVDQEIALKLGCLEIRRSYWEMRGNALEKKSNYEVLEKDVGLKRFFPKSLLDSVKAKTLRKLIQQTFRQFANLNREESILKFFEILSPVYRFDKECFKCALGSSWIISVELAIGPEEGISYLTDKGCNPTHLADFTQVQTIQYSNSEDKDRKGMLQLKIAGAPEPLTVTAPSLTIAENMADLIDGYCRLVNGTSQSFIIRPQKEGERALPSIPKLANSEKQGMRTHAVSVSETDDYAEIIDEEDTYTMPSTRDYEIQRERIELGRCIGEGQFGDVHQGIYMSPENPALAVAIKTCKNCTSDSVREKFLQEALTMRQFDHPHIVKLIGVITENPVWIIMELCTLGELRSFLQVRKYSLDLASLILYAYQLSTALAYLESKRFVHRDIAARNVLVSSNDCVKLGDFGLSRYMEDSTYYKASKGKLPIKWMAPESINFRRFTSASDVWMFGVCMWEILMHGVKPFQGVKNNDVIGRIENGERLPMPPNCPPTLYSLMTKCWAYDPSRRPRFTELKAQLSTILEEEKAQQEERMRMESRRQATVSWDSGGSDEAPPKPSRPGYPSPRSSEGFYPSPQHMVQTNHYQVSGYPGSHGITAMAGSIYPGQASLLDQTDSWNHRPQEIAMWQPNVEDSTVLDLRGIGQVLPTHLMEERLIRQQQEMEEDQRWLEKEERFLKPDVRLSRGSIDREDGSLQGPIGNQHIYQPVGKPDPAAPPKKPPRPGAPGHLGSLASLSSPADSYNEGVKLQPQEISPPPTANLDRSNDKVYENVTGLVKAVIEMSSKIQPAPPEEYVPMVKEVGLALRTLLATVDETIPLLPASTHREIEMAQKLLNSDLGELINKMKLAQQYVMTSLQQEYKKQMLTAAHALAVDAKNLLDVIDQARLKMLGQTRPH

hERG, sequence (Q12809 whole entry): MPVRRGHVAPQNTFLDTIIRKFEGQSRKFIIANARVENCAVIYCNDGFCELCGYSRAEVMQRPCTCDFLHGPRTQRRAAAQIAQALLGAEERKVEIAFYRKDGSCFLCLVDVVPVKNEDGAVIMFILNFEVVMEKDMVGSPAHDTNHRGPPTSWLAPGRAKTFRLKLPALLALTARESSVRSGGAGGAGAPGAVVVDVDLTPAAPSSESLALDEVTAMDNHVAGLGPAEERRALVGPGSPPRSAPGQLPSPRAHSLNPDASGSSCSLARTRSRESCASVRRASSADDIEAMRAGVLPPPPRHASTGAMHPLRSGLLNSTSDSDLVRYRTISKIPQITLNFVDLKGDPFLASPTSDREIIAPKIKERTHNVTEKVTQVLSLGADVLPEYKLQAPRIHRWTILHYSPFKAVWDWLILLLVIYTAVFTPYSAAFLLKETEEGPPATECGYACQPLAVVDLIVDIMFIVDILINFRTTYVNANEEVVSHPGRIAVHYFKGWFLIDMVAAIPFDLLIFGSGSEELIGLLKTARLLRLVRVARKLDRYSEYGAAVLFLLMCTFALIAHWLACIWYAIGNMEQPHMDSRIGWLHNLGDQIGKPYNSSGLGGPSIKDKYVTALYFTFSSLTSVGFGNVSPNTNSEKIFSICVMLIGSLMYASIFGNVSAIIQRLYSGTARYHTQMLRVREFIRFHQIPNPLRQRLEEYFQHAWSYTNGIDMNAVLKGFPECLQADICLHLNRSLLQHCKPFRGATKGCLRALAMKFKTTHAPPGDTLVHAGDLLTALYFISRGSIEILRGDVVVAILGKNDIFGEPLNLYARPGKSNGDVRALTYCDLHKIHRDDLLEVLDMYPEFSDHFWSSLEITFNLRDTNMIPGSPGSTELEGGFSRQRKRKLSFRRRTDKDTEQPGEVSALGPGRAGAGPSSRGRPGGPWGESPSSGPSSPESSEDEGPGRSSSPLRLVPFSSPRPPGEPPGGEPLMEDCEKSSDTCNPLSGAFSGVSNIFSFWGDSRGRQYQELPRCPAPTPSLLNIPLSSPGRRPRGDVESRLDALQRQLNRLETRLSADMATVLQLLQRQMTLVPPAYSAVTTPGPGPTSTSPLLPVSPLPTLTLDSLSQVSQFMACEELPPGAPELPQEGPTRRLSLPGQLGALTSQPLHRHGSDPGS

SMILES: CN(C)C(CNC(=O)Nc1cc(C(F)(F)F)ccc1N1CCOCC1)c1ccncc1.Cl (stereo not shown) [Compound 5aHCl, 1-(2-(dimethylamino)-2-(pyridin-4-yl)ethyl)-3-(2-morpholino-5-(trifluoromethyl)phenyl)urea hydrochloric salt]
- hERG Inhibition % (hERG): 4.87%
- area under the curve ([1]; 10 mg/kg oral gavage): 3149 µg·h/mL
- time of Cmax ([1]; 10 mg/kg oral gavage): 1 h
- maximum concentration (Cmax) ([1]; 10 mg/kg oral gavage in saline, n = 4): 967 ng/mL
- in vivo toxicity [2]: no in vivo toxicity
- in vitro cytotoxicity [3]: no in vitro cytotoxicity
- wound closure with proliferation inhibited (Caco-2 cells): accelerated
- EC50 (Caco-2 cells): 3.01 ± 0.52 nM
- water solubility [4]: water-soluble
- oral bioavailability [5]: orally bioavailable
- Clint [6]: > 307 uL/min/mg protein
- MLM t1/2 [6]: < 4.51 min
- Solubility [7]: 1074 µg/mL

SMILES: CN(C)C(CNC(=O)Nc1cc(C(F)(F)F)ccc1N1CCOCC1)c1cccnc1 (stereo not shown) [Compound 5b, 1-(2-(Dimethylamino)-2-(pyridin-3-yl)ethyl)-3-(2-morpholino-5-(trifluoromethyl)phenyl)urea]
- FAK-Tyr-397/FAK fold change, ± SEM (FAK; 100 nM): 1.0±0.04 fold change

SMILES: CN(C)C(CNC(=O)Nc1cc(C(F)(F)F)ccc1N1CCOCC1)c1cccnc1.Cl (stereo not shown) [Compound 5bHCl, 1-(2-(Dimethylamino)-2-(pyridin-3-yl)ethyl)-3-(2-morpholino-5-(trifluoromethyl)phenyl)urea hydrochloric salt]
- FAK-Tyr-397/FAK fold change, ± SEM (FAK; 100 nM): 1.05±0.06 fold change

SMILES: CN(C)C(CNC(=O)Nc1cc(C(F)(F)F)ccc1N1CCOCC1)c1ccccn1 (stereo not shown) [Compound 5c, 1-(2-(Dimethylamino)-2-(pyridin-2-yl)ethyl)-3-(2-morpholino-5-(trifluoromethyl)phenyl)urea]
- FAK-Tyr-397/FAK fold change, ± SEM (FAK; 100 nM): 0.84±0.11 fold change

SMILES: CN(C)C(CNC(=O)Nc1cc(C(F)(F)F)ccc1N1CCOCC1)c1ccccn1.Cl (stereo not shown) [Compound 5cHCl, 1-(2-(Dimethylamino)-2-(pyridin-2-yl)ethyl)-3-(2-morpholino-5-(trifluoromethyl)phenyl)urea hydrochloric salt]
- FAK-Tyr-397/FAK fold change, ± SEM (FAK; 100 nM): 0.98±0.07 fold change

SMILES: CC(C)(CNC(=O)Nc1cc(C(F)(F)F)ccc1N1CCOCC1)c1ccncc1 [Compound 6, 1-(2-Methyl-2-(pyridin-4-yl)propyl)-3-(2-morpholino-5-(trifluoromethyl)phenyl)urea]
- FAK-Tyr-397/FAK fold change, ± SEM (FAK; 100 nM): 1.09±0.12 fold change

SMILES: CC(C)(CNC(=O)Nc1cc(C(F)(F)F)ccc1N1CCOCC1)c1ccncc1.Cl [Compound 6HCl, 1-(2-Methyl-2-(pyridin-4-yl)propyl)-3-(2-morpholino-5-(trifluoromethyl)phenyl)urea hydrochloric salt]
- FAK-Tyr-397/FAK fold change, ± SEM (FAK; 100 nM): 1.11±0.12 fold change

SMILES: O=C(NCCc1ccncc1)Nc1cc(C(F)(F)F)ccc1N1CCOCC1 [Compound 7, 1-(2-Morpholino-5-(trifluoromethyl)phenyl)-3-(2-(pyridin-4-yl)ethyl)urea]
- FAK-Tyr-397/FAK fold change, ± SEM (FAK; 100 nM): 0.98±0.07 fold change

SMILES: Cl.O=C(NCCc1ccncc1)Nc1cc(C(F)(F)F)ccc1N1CCOCC1 [Compound 7HCl, 1-(2-Morpholino-5-(trifluoromethyl)phenyl)-3-(2-(pyridin-4-yl)ethyl)urea hydrochloric salt]
- FAK-Tyr-397/FAK fold change, ± SEM (FAK; 100 nM): 0.91±0.13 fold change

SMILES: O=C(NCCc1cnccn1)Nc1cc(C(F)(F)F)ccc1N1CCOCC1 [Compound 8, 1-(2-Morpholino-5-(trifluoromethyl)phenyl)-3-(2-(pyrazin-2-yl)ethyl)urea]
- FAK-Tyr-397/FAK fold change, ± SEM (FAK; 100 nM): 0.93±0.08 fold change

SMILES: Cl.O=C(NCCc1cnccn1)Nc1cc(C(F)(F)F)ccc1N1CCOCC1 [Compound 8HCl, 1-(2-Morpholino-5-(trifluoromethyl)phenyl)-3-(2-(pyrazin-2-yl)ethyl)urea hydrochloric salt]
- FAK-Tyr-397/FAK fold change, ± SEM (FAK; 100 nM): 1.05±0.07 fold change

SMILES: COC(=O)C(Cc1ccncc1)NC(=O)Nc1cc(C(F)(F)F)ccc1N1CCOCC1 (stereo not shown) [Compound 9a, Methyl 2-(3-(2-Morpholino-5-(trifluoromethyl)phenyl)ureido)-3-(pyridin-4-yl)propanoate]
- FAK-Tyr-397/FAK fold change, ± SEM (FAK; 100 nM): 1.03±0.08 fold change

SMILES: COCCNC(=O)C(Cc1ccncc1)NC(=O)Nc1cc(C(F)(F)F)ccc1N1CCOCC1 (stereo not shown) [Compound 9b, N-(2-Methoxyethyl)-2-(3-(2-morpholino-5-(trifluoromethyl)phenyl)ureido)-3-(pyridin-4-yl)propanamide]
- FAK-Tyr-397/FAK fold change, ± SEM (FAK; 100 nM): 0.97±0.08 fold change

SMILES: CN(C)C(CNC(=O)Nc1ccccc1N1CCOCC1)c1ccncc1 (stereo not shown) [Compound 10a, 1-(2-(Dimethylamino)-2-(pyridin-4-yl)ethyl)-3-(2-morpholinophenyl)urea]
- FAK-Tyr-397/FAK fold change, ± SEM (FAK; 100 nM): 1.23±0.07 fold change

SMILES: CN(C)C(CNC(=O)Nc1cc(F)ccc1N1CCOCC1)c1ccncc1 (stereo not shown) [Compound 10b, 1-(2-(Dimethylamino)-2-(pyridin-4-yl)ethyl)-3-(5-fluoro-2-morpholinophenyl)urea]
- FAK-Tyr-397/FAK fold change, ± SEM (FAK; 100 nM): 1.12 fold change and 1.12±0.05 fold change

SMILES: CN(C)C(CNC(=O)Nc1cc(F)ccc1N1CCOCC1)c1ccncc1.Cl (stereo not shown) [Compound 10bHCl, 1-(2-(Dimethylamino)-2-(pyridin-4-yl)ethyl)-3-(5-fluoro-2-morpholinophenyl)urea hydrochloric salt]
- hERG Inhibition % (hERG): 15.2%
- wound closure with proliferation inhibited (Caco-2 cells): accelerated
- EC50 (Caco-2 cells): 2.36 ± 0.58 nM
- Clint [6]: > 307 uL/min/mg protein
- MLM t1/2 [6]: <4.51 min
- FAK-Tyr-397/FAK fold change, ± SEM (FAK; 10 nM): 1.25 fold change
- FAK-Tyr-397/FAK fold change, ± SEM (FAK; 100 nM): 1.39 fold change
- Solubility [7]: 985 µg/mL

SMILES: Cc1ccc(N2CCOCC2)c(NC(=O)NCC(c2ccncc2)N(C)C)c1 (stereo not shown) [Compound 10c, 1-(2-(Dimethylamino)-2-(pyridin-4-yl)ethyl)-3-(5-methyl-2-morpholinophenyl)urea]
- FAK-Tyr-397/FAK fold change, ± SEM (FAK; 100 nM): 0.89±0.05 fold change

SMILES: CN(C)C(CNC(=O)Nc1cc(C#N)ccc1N1CCOCC1)c1ccncc1 (stereo not shown) [Compound 10d, 1-(5-Cyano-2-morpholinophenyl)-3-(2-(dimethylamino)-2-(pyridin-4-yl)ethyl)urea]
- FAK-Tyr-397/FAK fold change, ± SEM (FAK; 100 nM): 0.83±0.07 fold change

SMILES: CN(C)C(CNC(=O)Nc1cc(Cl)ccc1N1CCOCC1)c1ccncc1 (stereo not shown) [Compound 10e, 1-(5-Chloro-2-morpholinophenyl)-3-(2-(dimethylamino)-2-(pyridin-4-yl)ethyl)urea]
- FAK-Tyr-397/FAK fold change, ± SEM (FAK; 100 nM): 0.82±0.06 fold change

SMILES: CN(C)C(CNC(=O)Nc1cc(C(F)F)ccc1N1CCOCC1)c1ccncc1 (stereo not shown) [Compound 10f, 1-(5-(Difluoromethyl)-2-morpholinophenyl)-3-(2-(dimethylamino)-2-(pyridin-4-yl)ethyl)urea]
- FAK-Tyr-397/FAK fold change, ± SEM (FAK; 100 nM): 1.2±0.08 fold change

SMILES: CN(C)C(CNC(=O)Nc1cc(OC(F)(F)F)ccc1N1CCOCC1)c1ccncc1 (stereo not shown) [Compound 10g, 1-(2-(Dimethylamino)-2-(pyridin-4-yl)ethyl)-3-(2-morpholino-5-(trifluoromethoxy)phenyl)urea]
- FAK-Tyr-397/FAK fold change, ± SEM (FAK; 100 nM): 1.12±0.03 fold change

SMILES: COc1ccc(N2CCOCC2)c(NC(=O)NCC(c2ccncc2)N(C)C)c1 (stereo not shown) [Compound 10h, 1-(2-(Dimethylamino)-2-(pyridin-4-yl)ethyl)-3-(5-methoxy-2-morpholinophenyl)urea]
- FAK-Tyr-397/FAK fold change, ± SEM (FAK; 100 nM): 1.29±0.07 fold change

SMILES: COCOc1ccc(N2CCOCC2)c(NC(=O)NCC(c2ccncc2)N(C)C)c1 (stereo not shown) [Compound 10i, 1-(2-(Dimethylamino)-2-(pyridin-4-yl)ethyl)-3-(5-(methoxymethoxy)-2-morpholinophenyl)urea]
- FAK-Tyr-397/FAK fold change, ± SEM (FAK; 100 nM): 1.28±0.1 fold change

SMILES: COCCOc1ccc(N2CCOCC2)c(NC(=O)NCC(c2ccncc2)N(C)C)c1 (stereo not shown) [Compound 10j, 1-(2-(Dimethylamino)-2-(pyridin-4-yl)ethyl)-3-(5-(2-methoxyethoxy)-2-morpholinophenyl)urea]
- FAK-Tyr-397/FAK fold change, ± SEM (FAK; 100 nM): 1.05±0.1 fold change

SMILES: COCCOCCOc1ccc(N2CCOCC2)c(NC(=O)NCC(c2ccncc2)N(C)C)c1 (stereo not shown) [Compound 10k, 1-(2-(Dimethylamino)-2-(pyridin-4-yl)ethyl)-3-(5-(2-(2-methoxyethoxy)ethoxy)-2-morpholinophenyl)urea]
- FAK-Tyr-397/FAK fold change, ± SEM (FAK; 100 nM): 1.32±0.03 fold change

SMILES: COCCOCCOc1ccc(N2CCOCC2)c(NC(=O)NCC(c2ccncc2)N(C)C)c1.Cl (stereo not shown) [Compound 10kHCl, 1-(2-(Dimethylamino)-2-(pyridin-4-yl)ethyl)-3-(5-(2-(2-methoxyethoxy)ethoxy)-2-morpholinophenyl)urea hydrochloric salt]
- hERG Inhibition % (hERG): 0.608%
- wound closure with proliferation inhibited (Caco-2 cells): accelerated
- EC50 (Caco-2 cells): 3.01 ± 0.51 nM
- Clint [6]: 93.0 uL/min/mg protein
- MLM t1/2 [6]: 14.9 min
- Solubility [7]: 1018 µg/mL

SMILES: COCCOCCOCCOc1ccc(N2CCOCC2)c(NC(=O)NCC(c2ccncc2)N(C)C)c1 (stereo not shown) [Compound 10l, 1-(2-(Dimethylamino)-2-(pyridin-4-yl)ethyl)-3-(5-(2-(2-(2-methoxyethoxy)ethoxy)ethoxy)-2-morpholinophenyl)urea]
- FAK-Tyr-397/FAK fold change, ± SEM (FAK; 100 nM): 1.13±0.1 fold change

SMILES: CN(C)C(CNC(=O)Nc1cc(OCCOCCO)ccc1N1CCOCC1)c1ccncc1 (stereo not shown) [Compound 10m, 1-(2-(Dimethylamino)-2-(pyridin-4-yl)ethyl)-3-(5-(2-(2-hydroxyethoxy)ethoxy)-2-morpholinophenyl)urea]
- FAK-Tyr-397/FAK fold change, ± SEM (FAK; 100 nM): 0.93±0.1 fold change
